Results as given in paper PMC6271077, “Synthesis, Anticancer and Antibacterial Activity of Salinomycin N-Benzyl Amides” (Molecules, 2014).
Converted amounts (≈) assume the structure as drawn. Read-outs that look alike come from different tables or passages of the source.

Key:
LoVo = experiment: Antiproliferative SRB assay, LoVo; type: cell-based, human; settings: for IC50: Homo sapiens, LoVo, 72 h, read-out: IC50 LoVo; for SI LoVo: SI = IC50 BALB/3T3 / IC50 LoVo
Description: (§1) Four human cancer cell lines and one normal cell line were used to evaluate anticancer activity of SAL and its N-benzyl amides: human acute promyelocytic leukemia (HL-60) and its vincristine resistant subline (HL-60/vinc), human colon adenocarcinoma cell lines sensitive (LoVo) and resistant to doxorubicin (LoVo/dx) as well as also normal murine embryonic fibroblast cell line (BALB/3T3). The BALB/3T3 cell line was purchased from the American Type Culture Collection (ATCC Rockville, MD, USA), HL-60 cell line from European Type Culture Collection by courtesy of Professor Spik and Dr Mazurier (Laboratory of Biological Chemistry USTL, Lille, France) and HL-60/vinc, LoVo and LoVo/dx by courtesy of Prof. E. Borowski (Technical University of Gdańsk, Gdańsk, Poland). All the cell lines are maintained in the Institute of Immunology and Experimental Therapy (IIET), Wrocław, Poland.
(§2) Human leukemia cells were cultured in ISCOVE medium (IIET, Wroclaw, Polond) containing 10% fetal bovine serum and 2 mM L-glutamine (Sigma Aldrich) and 1 µg/100 mL […] for HL-60/vinc (Sigma Aldrich). Human colon adenocarcinoma cell lines were cultured in mixture of OptiMEM and RPMI 1640 (1:1) medium (IIET) supplemented with 5% fetal bovine serum (Thermo Fisher Scientific, Waltham, MA, USA), 2 mM L-glutamine, 1 mM sodium pyruvate (Sigma Aldrich) and 10 µg/100 mL doxorubicin for LoVo/dx (Sigma Aldrich). Murine embryonic fibroblast cells were cultured in Dulbecco medium (Gibco, Darmstadt, Germany) supplemented with 10% fetal bovine serum (Thermo Fisher Scientific) and 2 mM L-glutamine (Sigma Aldrich). All culture media contained antibiotics: 100 U/mL penicillin (Sigma Aldrich) and 100 µg/mL streptomycin (Polfa-Tarchomin, City, Poland). All cell lines were cultured during entire experiment in humid atmosphere at 37 °C and 5% CO2.
(§3) Twenty four hours before adding the tested compounds all cell lines were seeded in 96-well plates (Sarstedt, Nümbrecht, Germany) in appropriate media with 10^4 cells per well. All cell lines were exposed to each tested agent at four different concentrations from the range 100 to 0.1 µg/mL for 72 h. The cells were also exposed to the reference drugs: cisplatin (Accord, London, UK) and doxorubicin hydrochloride (Fluka, St. Louis, MO, USA). Additionally, all cell lines were exposed to DMSO (the solvent used for tested compounds, Sigma Aldrich) at the concentrations corresponding to those in the tested agent dilutions. For adherent cells sulphorodamine B assay was performed and MTT assay for leukemia cells.
(§4) After 72 h of incubation with tested compounds the cells were fixed in situ by gently adding of 50 µL per well of cold 50% trichloroacetic acid TCA (Avantor Performance Materials, City, Poland) and were incubated at 4 °C for 1 h. Then the wells were washed four times with water and air-dried. Next, 50 µL of 0.2% solution of sulphorodamine B (Sigma Aldrich) in 1% acetic acid (Avantor Performance Materials) were added to each well and plates were incubated at room temperature for 0.5 h. After incubation time, unbound dye was removed by washing plates four times with 1% acetic acid, whereas the stain bound to cells was solubilized with 150 µL of 10 mM Tris base (Sigma Aldrich). Absorbance of each solution was read at Synergy H4 photometer (BioTek Instruments, Winooski, VT, USA) at 540 nm wavelength.
(§5) Results are presented as mean IC50 (concentration of the tested compound that inhibits cell proliferation by 50%) ± standard deviation. IC50 values were calculated in Cheburator 1.0.2, Dmitry Nevozhay software for each experiment. Compounds at each concentration were tested in triplicates in single experiment and each experiment was repeated at least three times independently. The IR was defined as the ratio of IC50 for a given compound calculated for resistant cell line to that measured for its parental drug sensitive cell line (Table 4).

HL-60/vinc = experiment: Antiproliferative MTT assay, HL-60/vinc; type: cell-based, human; settings: for IC50: Homo sapiens, HL60/vinc, 72 h, read-out: IC50 HL-60/vinc; for IR HL-60/vinc: IR = IC50 HL-60/vinc / IC50 HL-60; for SI HL-60/vinc: SI = IC50 BALB/3T3 / IC50 HL-60/vinc
Description: as §1, §2, §3
(§6) Proliferation inhibition of leukemia cells by tested compounds was measured by means of MTT assay. Thus, 20 µL of 3-(4,5-dimethylthiazol-2-yl)-2,5-diphenyl tetrazolium bromide solution (Sigma Aldrich) were added to each well and plates were left in cell incubator for 4 h to allow the cells to metabolize yellow MTT to blue formazan. Then, the lysing mixture consisting of 225 mL dimethylformamide, 67.5 g sodium dodecyl sulfate (both from Sigma Aldrich) and 275 mL of distilled water was added in 80 µL volume per well. Plates were incubated for 24 h for the formazan crystals to be released from cells, dissolved and then absorbance of each well was read at Synergy H4 photometer (BioTek Instruments) at 570 nm wavelength.
as §5

[1] = system: M. tuberculosis isoniazid-sensitive strain (spec. 192); experiment: Tuberculostatic activity, test-tube dilution; type: cell-based; settings: Mycobacterium tuberculosis, read-out: MIC M. tuberculosis Isoniazid-Sensitive Strain
LoVo/dx = experiment: Antiproliferative SRB assay, LoVo/dx; type: cell-based, human; settings: for IC50: Homo sapiens, LoVo/DX, 72 h, read-out: IC50 LoVo/dx; for IR LoVo/DX: IR = IC50 LoVo/dx / IC50 LoVo; for SI LoVo/DX: SI = IC50 BALB/3T3 / IC50 LoVo/dx
Description: as §1, §2, §3, §4, §5

[2] = system: standard and "wild" strains of M. tuberculosis; experiment: Tuberculostatic activity, all M. tuberculosis strains (overall); type: cell-based; settings: Mycobacterium tuberculosis, H37RV, read-out: MIC (over M. tuberculosis strains)
HL-60 = experiment: Antiproliferative MTT assay, HL-60; type: cell-based, human; settings: for IC50: Homo sapiens, read-out: IC50 HL-60; for SI HL-60: SI = IC50 BALB/3T3 / IC50 HL-60
Description: as §1, §2, §3, §6, §5

[3] = system: M. tuberculosis standard H37Rv strain; experiment: Tuberculostatic activity, test-tube dilution; type: cell-based; settings: Mycobacterium tuberculosis, read-out: MIC M. tuberculosis Standard H37Rv Strain
[4] = system: HL-60, HL-60/vinc, LoVo, LoVo/dx; experiment: Antiproliferative assays, all four cancer cell lines (range given); type: cell-based; settings: Homo sapiens, read-out: IC50 (range over the cancer cell lines)
Description: as §1, §2, §3, §4
Proliferation inhibition of leukemia cells by tested compounds was measured by means of MTT assay. […]

[5] = HL-60, 72 h, MTT, mean ± SD, NA: not active in concentrations used (up to 100 µg/mL)

| SMILES | IC50 (LoVo; SRB, mean ± SD) | SI LoVo (LoVo) | IC50 (HL-60/vinc) | IR HL-60/vinc (HL-60/vinc) | SI HL-60/vinc (HL-60/vinc) | MIC [1] | IC50 (LoVo/dx) | IR LoVo/DX (LoVo/dx) | SI LoVo/DX (LoVo/dx) | MIC [2] | IC50 (HL-60; [5]) | SI HL-60 (HL-60) | MIC [3] | IC50 ([4]; range over HL-60, HL-60/vinc, LoVo, LoVo/dx) | IC50 (LoVo) | IC50 (HL-60; HL-60, 72 h) | IC50 [4] | MIC ([1]; wild strain spec. 192, Youmans' medium, 37 °C, tested 3.1-100 µg/mL) | MIC ([3]; Youmans' medium, 37 °C, tested 3.1-100 µg/mL) |
| --- | --- | --- | --- | --- | --- | --- | --- | --- | --- | --- | --- | --- | --- | --- | --- | --- | --- | --- | --- |
| CC[C@H](C(=O)NCc1cccc(Br)c1)C1CC[C@H](C)C([C@@H](C)[C@H](O)[C@H](C)C(=O)[C@H](CC)C2O[C@]3(C=C[C@@H](O)C4(CC[C@@](C)(C5CC[C@](O)(CC)[C@H](C)O5)O4)O3)[C@H](C)C[C@@H]2C)O1 (stereo partly shown) [Br-m] | 5.23 ± 0.22 µM | 1.77 | 7.08 ± 1.73 µM | 2.09 | 1.31 | > 100 µg/mL | 3.39 ± 0.15 µM | 0.65 | 2.73 | > 100 µg/mL | 3.38 ± 1.09 µM | 2.74 | > 100 µg/mL |  |  |  |  |  |  |
| CC[C@H](C(=O)NCc1ccc(Br)cc1)C1CC[C@H](C)C([C@@H](C)[C@H](O)[C@H](C)C(=O)[C@H](CC)C2O[C@]3(C=C[C@@H](O)C4(CC[C@@](C)(C5CC[C@](O)(CC)[C@H](C)O5)O4)O3)[C@H](C)C[C@@H]2C)O1 (stereo partly shown) [Br-p] | 16.3 ± 0.96 µM | 0.52 | 33.5 ± 10.9 µM | 1.62 | 0.25 | 50 µg/mL (≈ 54.4 µM) | 4.97 ± 2.76 µM | 0.30 | 1.69 |  | 20.7 ± 4.66 µM | 0.41 | 50 µg/mL (≈ 54.4 µM) |  |  |  |  |  |  |
| CC[C@H](C(=O)NCc1cccc(Cl)c1)C1CC[C@H](C)C([C@@H](C)[C@H](O)[C@H](C)C(=O)[C@H](CC)C2O[C@]3(C=C[C@@H](O)C4(CC[C@@](C)(C5CC[C@](O)(CC)[C@H](C)O5)O4)O3)[C@H](C)C[C@@H]2C)O1 (stereo partly shown) [Cl-m] | 11.6 ± 5.12 µM | 1.49 | 6.59 ± 1.22 µM | 1.72 | 2.63 | > 100 µg/mL | 2.96 ± 0.99 µM | 0.25 | 5.86 |  | 3.83 ± 0.09 µM | 4.52 | 100 µg/mL (≈ 114 µM) |  |  |  |  |  |  |
| CC[C@H](C(=O)NCc1ccccc1Cl)C1CC[C@H](C)C([C@@H](C)[C@H](O)[C@H](C)C(=O)[C@H](CC)C2O[C@]3(C=C[C@@H](O)C4(CC[C@@](C)(C5CC[C@](O)(CC)[C@H](C)O5)O4)O3)[C@H](C)C[C@@H]2C)O1 (stereo partly shown) [Cl-o] | 3.85 ± 0.05 µM | 1.56 | 3.99 ± 1.47 µM | 1.25 | 1.50 | 50 µg/mL (≈ 57.2 µM) | 2.91 ± 0.22 µM | 0.76 | 2.06 |  | 3.18 ± 0.69 µM | 1.89 | 100 µg/mL (≈ 114 µM) | 2.32 to 6.84 µM |  |  |  |  |  |
| CC[C@H](C(=O)NCc1ccc(Cl)cc1)C1CC[C@H](C)C([C@@H](C)[C@H](O)[C@H](C)C(=O)[C@H](CC)C2O[C@]3(C=C[C@@H](O)C4(CC[C@@](C)(C5CC[C@](O)(CC)[C@H](C)O5)O4)O3)[C@H](C)C[C@@H]2C)O1 (stereo partly shown) [Cl-p, p-chlorobenzyl amide of salinomycin] | 19.3 ± 4.03 µM | 0.40 | 46.8 ± 12.5 µM | 1.29 | 0.16 | 100 µg/mL (≈ 114 µM) | 16.6 ± 4.81 µM | 0.86 | 0.46 |  | 36.2 ± 3.03 µM | 0.21 | 100 µg/mL (≈ 114 µM) |  |  |  |  |  |  |
| CCC(C(=O)NCc1cccc(F)c1)C1CCC(C)C(C(C)C(O)C(C)C(=O)C(CC)C2OC3(C=CC(O)C4(CCC(C)(C5CCC(O)(CC)C(C)O5)O4)O3)C(C)CC2C)O1 (stereo not shown) [F-m] |  | 0.48 |  |  |  | > 100 µg/mL | 3.91 ± 2.1 µM | 0.29 | 1.65 |  |  | 0.10 | 100 µg/mL (≈ 117 µM) |  | 13.5 ± 0.28 µM | 65 ± 35.3 µM |  |  |  |
| CCC(C(=O)NCc1ccccc1F)C1CCC(C)C(C(C)C(O)C(C)C(=O)C(CC)C2OC3(C=CC(O)C4(CCC(C)(C5CCC(O)(CC)C(C)O5)O4)O3)C(C)CC2C)O1 (stereo not shown) [F-o] |  | 1.71 | 4.44 ± 1.73 µM | 1.22 | 1.34 | 50 µg/mL (≈ 58.3 µM) | 2.32 ± 0.69 µM | 0.66 | 2.57 |  |  | 1.64 | 100 µg/mL (≈ 117 µM) |  | 3.49 ± 0.59 µM | 3.63 ± 0.14 µM | 2.32 to 6.84 µM |  |  |
| NNC(=O)c1ccncc1 [Isoniazid, isoniazid, reference compound] |  |  |  |  |  |  |  |  |  | 3.1 to 6.25 µg/mL (≈ 22.6 to 45.6 µM) |  |  |  |  |  |  |  | < 3.1 µg/mL | < 3.1 µg/mL |
| CC[C@H](C(=O)NCc1cccc([N+](=O)[O-])c1)C1CC[C@H](C)C([C@@H](C)[C@H](O)[C@H](C)C(=O)[C@H](CC)C2O[C@]3(C=C[C@@H](O)C4(CC[C@@](C)(C5CC[C@](O)(CC)[C@H](C)O5)O4)O3)[C@H](C)C[C@@H]2C)O1 (stereo partly shown) [NO2-m] | 16.1 ± 1.61 µM | 1.54 | 24.6 ± 8 µM | 2.80 | 1.01 | 100 µg/mL (≈ 113 µM) | 3.26 ± 0.84 µM | 0.20 | 7.64 |  | 8.78 ± 1.73 µM | 2.84 | 100 µg/mL (≈ 113 µM) |  |  |  |  |  |  |
| CCC(C(=O)NCc1ccccc1[N+](=O)[O-])C1CCC(C)C(C(C)C(O)C(C)C(=O)C(CC)C2OC3(C=CC(O)C4(CCC(C)(C5CCC(O)(CC)C(C)O5)O4)O3)C(C)CC2C)O1 (stereo not shown) [NO2-o] |  | 2.51 | 6.84 ± 2.04 µM | 1.97 | 1.40 | 50 µg/mL (≈ 56.5 µM) | 2.45 ± 0.26 µM | 0.64 | 3.90 |  |  | 2.75 | 50 µg/mL (≈ 56.5 µM) |  | 3.81 ± 0.18 µM | 3.47 ± 0.44 µM | 2.32 to 6.84 µM |  |  |
